This is an account of results in paper PMC8708382, “Heterocyclic Cathinones as Inhibitors of Kynurenine Aminotransferase II—Design, Synthesis, and Evaluation” (Pharmaceuticals, 2021).

In general, IC50 refers to the concentration at which inhibition is half-maximal. The melting point is the temperature, or range, at which the solid turns liquid.

In one series the test system is KAT-II. Conditions: published KAT-II inhibitors, Figure 2; cited from earlier work.
The next series has as its target T1, hKAT-II (Homo sapiens, UniProt Q8N5Z0).
T1 construct: hexahistidine tag (N); made in house; host or cells: E. coli BL21(DE3)-RIL
In words: Coupled fluorescence in vitro inhibition assay of hKAT-II. Type of series: biochemical. Conditions: for Inhibitory Activity [%I ± SEM] c = 1 µM: 30 min pre-incubation with enzyme, mean ± SEM. The method, then: The inhibitory activity of amino ketones 11 and 12 was evaluated using a fluorimetric in vitro assay. The activity was determined as the percentage of inhibition (%I) at a concentration of 1 µmol/L and also as IC50 values (Table 1). The observed inhibitory activity confirmed the validity of the computational model and was suitable to conduct a synthesis-directed SAR study around the predicted heterocyclic α-amino ketone structure.
The nucleotide sequence encoding hKAT-II gene was constructed by Invitrogen, Thermo Fisher Scientific. The hKAT-II gene, optimized for heterologous expression in E. coli, was cloned into a pET15b vector using NdeI-XhoI. The hKAT-II protein, carrying an N-terminal hexahistidine tag, was produced in E.coli BL21(DE3)-RIL cells for 4 h at 37 °C. The bacterial cells were then harvested and disintegrated using One-Shot. […] (25.000× g, 30 min) centrifugation cleared cell lysate containing hKAT-II was loaded on the top of a HisTrap Fast Flow column (Cytiva) equilibrated in loading buffer (40 mM Tris, pH 8; 1000 mM NaCl, 40 µM PLP, 5 mM MgCl2, 20 mM imidazole). Following elution of the bound proteins by the loading buffer containing 600 mM imidazole, purified hKAT-II was dialyzed into a storage buffer (20 mM Hepes pH 7.5; 50 mM NaCl, 70 µM PLP, 10% glycerol), concentrated to 1.0–1.5 mg/mL, aliquoted, and stored at −80 °C.
hKAT-II activity was measured using a fluorescence assay utilizing L-α-aminoadipic acid (AAD) and α-ketoglutarate as the substrates as previously described. The assay medium (100 µL) consisted of 0.75 µM of hKAT-II, 0.3 mM of AAD, 50 µM α-ketoglutarate, 3 mM NAD^+, 88 µg/mL of glutamic dehydrogenase, and 5 µM pyridoxal phosphate (PLP) in a 0.1 M phosphate buffer pH 7.5. The activity of the enzyme was assessed on a Spark multiple mode reader (Tecan Group Ltd., Männedorf, Switzerland) with an excitation wavelength of 340 nm and emission wavelength of 390 nm at 37 °C. The plate was shaken for 20 s before reading. The kinetic interval was set at 30 s between each reading, and data were collected for 30 min. The activity of the enzyme was assayed in pentaplicate in each measurement (n = 3). Kinetic data were then collected over a period of 30 min, and the linear part of the initial velocity was used to calculate the enzyme activity expressed as the slope of the linearized curve via the linear regression function (Excel, Microsoft, USA).
The inhibitory activity of the tested compounds was determined via 30 min pre-incubation with the enzyme at various concentrations of the inhibitor at room temperature in a 0.1 M phosphate buffer pH 7.5 with 5 µM PLP. The enzyme reaction was initiated by the addition of a substrate and cofactors. The final mixture contained 20 nM of hKAT-II, 0.3 mM of AAD, 50 µM α-ketoglutarate, 3 mM NAD^+, and 88 µg/mL of glutamic dehydrogenase. Kinetic data were collected over a period of 30 min, and the slope of the linearized curve was calculated as above. The inhibitory activity in %I at a given concentration was calculated for novel compounds using the following equation:(1) Inhibition [%I]=(V0− Vi/V0)×100, where V0 and Vi are the activity of the enzyme in the absence and presence of the inhibitor, respectively. All the data were obtained in pentaplicate for each measurement (n = 3). Alternatively, the IC50 values for selected novel compounds were assessed. GraphPad Prism 8 software (San Diego, USA) was used for the IC50 value calculation using non-linear regression (four parameters). […]

Read-outs that look alike come from different tables or passages of the source.

T1 sequence (Q8N5Z0 30-425): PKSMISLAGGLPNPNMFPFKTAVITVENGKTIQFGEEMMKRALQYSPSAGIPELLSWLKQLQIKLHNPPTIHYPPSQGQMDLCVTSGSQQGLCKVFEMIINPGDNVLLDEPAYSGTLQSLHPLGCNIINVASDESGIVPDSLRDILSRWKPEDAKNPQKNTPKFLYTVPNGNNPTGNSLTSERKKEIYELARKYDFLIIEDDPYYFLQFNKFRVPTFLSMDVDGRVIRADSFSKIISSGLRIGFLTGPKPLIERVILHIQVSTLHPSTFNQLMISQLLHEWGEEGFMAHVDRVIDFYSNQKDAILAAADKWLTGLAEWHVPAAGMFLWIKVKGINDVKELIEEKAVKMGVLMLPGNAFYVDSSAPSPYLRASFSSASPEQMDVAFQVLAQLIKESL

Take `CCS(=O)(=O)c1ccc(C(=O)C[C@H](N)C(=O)O)cc1` [Compound 1, (S)-ESBA]: the IC50 with KAT-II was 71000 nM.
As for `C[C@H]1COc2c(N3CCN(N)CC3)c(F)cc3c(=O)c(C(=O)O)cn1c23` [Compound 2, BFF-122], the half-inhibitory concentration (IC50) in the series with KAT-II was 1000 nM.
With `N[C@H]1Cc2cn(-c3ccccc3)nc2N(O)C1=O` [Compound 4], the IC50 with KAT-II is 25 nM.
On to `O=C1NC(=O)/C(=C/c2cccc(-c3ccc4c5c3CCC(=O)N5CC4)c2)S1` [Compound 5, BFF-816], for which the IC50 in the series with KAT-II was 13400 nM.
Consider `CC1(C)[C@@H](O)CC[C@]2(C)[C@H]3C(=O)C=C4[C@@H]5C[C@@](C)(C(=O)O)CC[C@]5(C)CC[C@@]4(C)[C@]3(C)CC[C@@H]12` [Compound 6, glycyrrhetinic acid], for which the half-maximal inhibitory concentration (IC50) with KAT-II was 7000 nM.
As to `NS(=O)(=O)c1ccc(N2C(=O)c3cc(Cl)c(Cl)cc3C2=O)cc1` [Compound 7], the IC50 in the series with KAT-II is 73800 nM.
Turning to `Cn1c(CN2CCOCC2)nc2sc([C@H]3CCCN3C(=O)OCc3ccccc3)nc2c1=O` [Compound 8], the IC50 with KAT-II is 610 nM.
In the case of `CC(C)[C@@H](Cc1nnc(NS(=O)(=O)c2cc(F)cc(F)c2)s1)c1cccc(F)c1` [Compound 9], the 50% inhibitory concentration (IC50) in the series with KAT-II is 880 nM.
For `Cc1ccc(NC(=O)N2CCCC3(CCC(=O)N(CCC(C)C)C3)C2)cc1Cl` (stereo not drawn) [Compound 10], the half-inhibitory concentration (IC50) in the series on KAT-II was 810 nM.
`C[C@H](N)C(=O)c1cn(-c2ccccc2Cl)nn1.Cl` [Compound 26t]: the melting point was 138 to 169 °C (dec.). In addition, on hKAT-II (20 nM hKAT-II), the “Inhibitory Activity [%I ± SEM] c = 1 µM” value was 35.52 ± 3.63 %I.
On the same counts, the results for `C[C@H](N)C(=O)c1cn(-c2ccc(Cl)c(Cl)c2)nn1` [Compound 26u] are > 163 °C (dec.) and 19.33 ± 1.06 %I.
In the same order, the values of `C[C@H](N)C(=O)c1cn(Cc2ccccc2)nn1.Cl` [Compound 28a] are > 182 °C (dec.) and 14.54 ± 3.19 %I.
On the same counts, the results for `C[C@H](N)C(=O)c1cn(CCc2ccccc2)nn1.Cl` [Compound 28b] are > 172 °C (dec.) and 11.84 ± 5.76 %I.
For the compound `C[C@H](N)C(=O)c1cn(-c2ccc(F)cc2Cl)nn1` [Compound 32a], the melting point was > 158 °C (dec.). The “Inhibitory Activity [%I ± SEM] c = 1 µM” value at hKAT-II (20 nM hKAT-II) was 25.30 ± 1.10 %I.
Consider `CC[C@H](N)C(=O)c1cn(-c2ccc(F)cc2Cl)nn1` [Compound 32b], for which the melting point is > 196 °C (dec.). In addition, the “Inhibitory Activity [%I ± SEM] c = 1 µM” value at hKAT-II (20 nM hKAT-II) is 21.25 ± 0.67 %I.
On the same counts, the results for `CC[C@H](N)C(=O)c1cn(-c2ccc(F)cc2)nn1.Cl` [Compound 32c] are > 182 °C (dec.) and 35.94 ± 2.87 %I.
For the compound `C[C@H](N)C(=O)c1nc2ccccc2s1.Cl` [Compound 34a], the melting point was > 156 °C (dec.). Also, at hKAT-II (20 nM hKAT-II), the “Inhibitory Activity [%I ± SEM] c = 1 µM” value is reported as 52.49 ± 1.31 %I.
As for `C[C@H](N)C(=O)c1nc2ccc(F)cc2s1` [Compound 34b], the melting point is > 152 °C (dec.). The compound further registered a half-inhibitory concentration (IC50) against hKAT-II of 987 ± 88 nM. For the same compound, the “Inhibitory Activity [%I ± SEM] c = 1 µM” value at hKAT-II (20 nM hKAT-II) is given as 56.60 ± 3.68 %I.
As to `CC[C@H](N)C(=O)c1nc2ccccc2s1.Cl` [Compound 34c], the melting point is > 140 °C (dec.). Further, the “Inhibitory Activity [%I ± SEM] c = 1 µM” value at hKAT-II (20 nM hKAT-II) came to 36.16 ± 3.81 %I.
On the same counts, the results for `CC[C@H](N)C(=O)c1nc2ccc(F)cc2s1.Cl` [Compound 34d] are > 145 °C (dec.) and 9.73 ± 1.41 %I.
Regarding `CC[C@H](N)C(=O)c1ncc(-c2ccc(F)cc2)s1` [Compound 49b], the melting point is > 150 °C (dec.). In addition, the “Inhibitory Activity [%I ± SEM] c = 1 µM” value at hKAT-II (20 nM hKAT-II) was determined as 57.07 ± 0.31 %I.
On the same counts, the results for `C[C@H](N)C(=O)c1ncc(-c2ccc(F)cc2Cl)s1.Cl` [Compound 49c] are 127 to 134 °C (dec.) and 47.65 ± 1.71 %I.
With `CC[C@H](N)C(=O)c1ncc(-c2ccc(F)cc2Cl)s1.Cl` [Compound 49d], the melting point was > 134 °C (dec.). In addition, on hKAT-II (30 min pre-incubation, 20 nM hKAT-II, non-linear regression (four parameters), read-out: IC50 ± SEM), the half-maximal inhibitory concentration (IC50) turned out to be 304 ± 39 nM. For the same compound, the “Inhibitory Activity [%I ± SEM] c = 1 µM” value on hKAT-II (20 nM hKAT-II) worked out at 59.71 ± 0.97 %I.
